Consider one molecule from US6579853B2, “Brain cell or nerve cell-protective agents comprising ginsenoside Rb1” (Japan Science and Technology Corporation, priority 1998, dated 2003).

Each structure is given as a SMILES string.

Data set [1] concerns SH-SP rats with MCA permanent occlusion. The data set is described as follows: Ratio of cerebrocortical infarction after MCA permanent occlusion, intravenous infusion. The class given is in vivo, rat. How it is done: (§1) First, we examined the actions of intravenous infusion of ginsenoside Rb1. For this purpose, for example, male SH-SP rats weighing 250˜300 g at the age of 12-13 weeks were used. The animals were bred in an air-conditioned room with a 12:12 hour light-dark cycle, and water and feeds were supplied ad libitum. The cortical branch of the left middle cerebral artery (MCA) was coagulated and cut. A single intravenous administration of ginsenoside Rb1 dissolved in physiological saline was conducted immediately after MCA permanent occlusion (6 μg or 60 μg), thereafter continuous intravenous administration of ginsenoside Rb1 was performed for 28 days by using an Alza mini osmotic pump (6 μg/day or 60 μg/day).
After the water maze tests at the 4th week, the SH-SP rats were anesthetized with chloral hydrate, and they were perfused and fixed transcardially with 0.1 mole phosphate buffer containing 4% paraformaldehyde. The brains were dissected out and cerebrocortical infarcted areas were photographed. Areas of the left cerebral hemisphere and the left cerebrocortical infarct lesions were measured on the photographs by using an image analysis device. The left cerebrocortical infarcted areas were divided by the left cerebral hemispheric areas to calculate ratios of the cerebrocortical infarction (%).
Male SH-SP rats at the age of 12-13 weeks, weighing 250-300 g, were used. The animals were bred in a room furnished with 12 hours light and dark cycles and water and feeds were supplied ad libitum. Blood pressure of the animals was 203±6.9 mmHg. The following experiments were conducted in accordance with the Guide for Animal Experimentation at Ehime University School of Medicine. […]
After termination of the water maze tests at the 4th week, the SH-SP rats were anesthetized with chloral hydrate, and they were perfused and fixed transcardially with 0.1 mole phosphate buffer containing 4% paraformaldehyde. […] Areas of the left cerebral hemisphere and the left cerebrocortical infarct lesions were measured on the photographs by using an image analysis device. […]

The test system of data set [2] is nerve cells. To be noted: cited from earlier work.
The test system of data set [3] is SH-SP rats with MCA permanent occlusion. The data set is described as follows: Water maze test (place navigation ability) after MCA permanent occlusion, intravenous infusion. The class given is in vivo, rat. Here is the method:
as §1
After MCA permanent occlusion, according to the conventional method (Zhang B. et al., J. Stroke Cerebrovasc. Dis., 7, 1-9, 1998), water maze tests were performed for 4 days at the 2nd week and the 4th week, respectively, and the place navigation abilities of SH-SP rats were determined.
Male SH-SP rats at the age of 12-13 weeks, weighing 250-300 g, were used. The animals were bred in a room furnished with 12 hours light and dark cycles and water and feeds were supplied ad libitum. Blood pressure of the animals was 203±6.9 mmHg. The following experiments were conducted in accordance with the Guide for Animal Experimentation at Ehime University School of Medicine. The cortical branch of the left middle cerebral artery (MCA) of SH-SP rats, were coagulated and cut, while their rectal temperature was maintained at 37±0.2° C. under inhalation anesthesia.
Immediately after MCA permanent occlusion, 60 μl of physiological saline containing ginsenoside Rb1 at a concentration of 1 μg/μl or 0.1 μg/μl was injected once into the left femoral vein. […]
After the MCA permanent occlusion according to the conventional method (Zhang B. et al., J. Stroke Cerebrovase. Dis., 7, 1-9, 1998), water maze tests were performed for 4 days at the 2nd week and the 4th week, respectively, and place navigation abilities of SH-SP rats were determined. […]

For data set [4], the system named is gerbils with occlusion of the common carotid arteries. As to conditions: i.c.v. infusion starting immediately after 3 or 3.5 minute occlusion; cited from earlier work.
For data set [5], the system named is Bcl-xL mRNA. The data set is described as follows: Bcl-xL mRNA expression in cultured nerve cells (RT-PCR). The class given is cell-based, rat. To be noted: 1 fg/ml or 100 fg/ml, 24 hours; compared with control (0 fg/ml). How it is done: It was investigated whether ginsenoside Rb1 of the present invention can increase the expression of Bcl-xL gene or not. Experimental techniques followed those by Wen et al. (Wen T. -C., et al., J. Exp. Med., 188, 635-649, 1998). Total RNA was extracted from cultured nerve cells treated for 24 hours with ginsenoside Rb1 at the concentrations of 0 fg/ml, 1 fg/ml and 100 fg/ml. cDNA was prepared from DNase-treated total RNA (3 μg) by using oligo dT primer and reverse transcriptase (Moloney murine leukemia virus reverse transcriptase). Gene amplification reaction (polymerase chain reaction, PCR) was performed by using Taq polymerase under the following conditions: (1) 94° C., 2 minutes; (2) 94° C., 1.5 minute; 55° C., 1.5 minute; 72° C., 2 minutes constructed one cycle, and 25 cycles for Bcl-xL and 20 cycles for β-actin were performed; and (3) 72° C., 2 minutes.
PCR products were electrophoresed on 3% agarose gel and visualized by ethidium bromide staining. The expression of β-actin mRNA was used as an internal standard. […]

`CC(C)=CCC[C@](C)(O[C@@H]1O[C@H](CO[C@@H]2O[C@H](CO)[C@@H](O)[C@H](O)[C@H]2O)[C@@H](O)[C@H](O)[C@H]1O)[C@H]1CC[C@]2(C)[C@@H]1[C@H](O)C[C@@H]1[C@@]3(C)CC[C@H](O[C@@H]4O[C@H](CO)[C@@H](O)[C@H](O)[C@H]4O[C@@H]4O[C@H](CO)[C@@H](O)[C@H](O)[C@H]4O)C(C)(C)[C@@H]3CC[C@]12C` [ginsenoside Rb1]: the “ratio of cerebrocortical infarction” value in data set [1] (i.v. 6 or 60 μg/day for 28 days, compared with physiological saline group) is recorded as “significantly reduced”. Further, the “actual volume of infarction reduced to (fraction of control)” value in data set [1] (i.v. administration, worked out from area ratio) is recorded as “about ¼”. Besides, in data set [1] (i.v. ginsenoside Rb1 groups, reduced to), the “mean ratio of cerebrocortical infarction compared with physiological saline group” value is on record as no more than 50%. In addition, the “neurotoxicity at high concentrations” value in data set [2] is listed as “increased neurotoxicity”. For the same molecule, the “learning disability in water maze tests, low dose” value in data set [3] (i.v. 6 μg/day, 3rd and 4th day at the 2nd and 4th week after MCA occlusion) is “significantly ameliorated”. Also, the “learning disability in water maze tests, high dose” value in data set [3] (i.v. 60 μg/day, 4th day at the 2nd week, 3rd and 4th days at the 4th week after MCA occlusion) is recorded as “significantly ameliorated”. For the same molecule, the “place navigation disability after MCA permanent occlusion (water maze)” value in data set [3] (intravenous infusion 6 or 60 μg/day for 28 days, compared with cerebral infarction group given physiological saline) was “significantly improved”. Also, the “delayed neuronal death and learning disability” value in data set [4] is given as “suppresses”. Also, the “expression of Bcl-xL mRNA” value in data set [5] is given as “increased”.
